{"source": "the supplement of paper PMC10307832", "experiment_in_all_cases": "relative viability (nuclei count vs DMSO), 5 days (fraction); higher = more cells survive", "key": {"NCI-H2347": {"tested_on": "NCI-H2347", "procedure,_shortened": "(§1)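 Five library-drug doses in √10 steps were combined with a fixed anchor-drug dose, or a single drug was given alone, by pin tool to lung cancer cell lines in 1536-well plates the day after seeding. Nuclei were stained and counted after 5 days. Relative viability is the nuclei count in treated wells over that in vehicle wells, taken as the median of duplicate plates.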"}, "NCI-H727": {"tested_on": "NCI-H727", "procedure,_shortened": "as §1"}, "UMC-11": {"tested_on": "UMC-11", "procedure,_shortened": "as §1"}, "201T": {"tested_on": "201T", "procedure,_shortened": "as §1"}, "NCI-H1650": {"tested_on": "NCI-H1650", "procedure,_shortened": "as §1"}, "NCI-H1734": {"tested_on": "NCI-H1734", "procedure,_shortened": "as §1"}, "NCI-H1355": {"tested_on": "NCI-H1355", "procedure,_shortened": "as §1"}, "HCC-78": {"tested_on": "HCC-78", "procedure,_shortened": "as §1"}, "HCC-44": {"tested_on": "HCC-44", "procedure,_shortened": "as §1"}, "HCC-366": {"tested_on": "HCC-366", "procedure,_shortened": "as §1"}, "ABC-1": {"tested_on": "ABC-1", "procedure,_shortened": "as §1"}, "NCI-H838": {"tested_on": "NCI-H838", "procedure,_shortened": "as §1"}, "NCI-H1666": {"tested_on": "NCI-H1666", "procedure,_shortened": "as §1"}, "NCI-H358": {"tested_on": "NCI-H358", "procedure,_shortened": "as §1"}, "NCI-H2228": {"tested_on": "NCI-H2228", "procedure,_shortened": "as §1"}, "LK-2": {"tested_on": "LK-2", "procedure,_shortened": "as §1"}, "BEN": {"tested_on": "BEN", "procedure,_shortened": "as §1"}, "NCI-H2009": {"tested_on": "NCI-H2009", "procedure,_shortened": "as §1"}, "LOU-NH91": {"tested_on": "LOU-NH91", "procedure,_shortened": "as §1"}, "NCI-H2405": {"tested_on": "NCI-H2405", "procedure,_shortened": "as §1"}, "NCI-H520": {"tested_on": "NCI-H520", "procedure,_shortened": "as §1"}, "SW 1573": {"tested_on": "SW 1573", "procedure,_shortened": "as §1"}, "NCI-H1755": {"tested_on": "NCI-H1755", "procedure,_shortened": "as §1"}}}
{"smiles": "CCCCCCCCCCCC1=C(O)C(=O)C=C(O)C1=O", "note": "[Embelin] + COc1cccc2cc(-c3nc([C@H]4CC[C@H](C(=O)O)CC4)n4ncnc(N)c34)[nH]c12 [OSI-027] (partner 0.5 µM)", "values": [{"measurement": "relative viability", "setting": "NCI-H2347; first compound 0.08 µM", "result": 0.428}, {"measurement": "relative viability", "setting": "NCI-H2347; first compound 0.8 µM", "result": 0.468}, {"measurement": "relative viability", "setting": "NCI-H2347; first compound 2.53 µM", "result": 0.412}, {"measurement": "relative viability", "setting": "NCI-H2347; first compound 8 µM", "result": 0.527}, {"measurement": "relative viability", "setting": "NCI-H727; first compound 0.08 µM", "result": 0.659}, {"measurement": "relative viability", "setting": "NCI-H727; first compound 0.8 µM", "result": 0.79}, {"measurement": "relative viability", "setting": "NCI-H727; first compound 2.53 µM", "result": 0.494}, {"measurement": "relative viability", "setting": "NCI-H727; first compound 8 µM", "result": 0.709}, {"measurement": "relative viability", "setting": "UMC-11; first compound 0.08 µM", "result": 0.441}, {"measurement": "relative viability", "setting": "UMC-11; first compound 0.8 µM", "result": 0.492}, {"measurement": "relative viability", "setting": "UMC-11; first compound 2.53 µM", "result": 0.511}, {"measurement": "relative viability", "setting": "UMC-11; first compound 8 µM", "result": 0.51}, {"measurement": "relative viability", "setting": "201T; first compound 0.08 µM", "result": 0.72}, {"measurement": "relative viability", "setting": "201T; first compound 0.8 µM", "result": 0.883}, {"measurement": "relative viability", "setting": "201T; first compound 2.53 µM", "result": 0.746}, {"measurement": "relative viability", "setting": "201T; first compound 8 µM", "result": 0.83}, {"measurement": "relative viability", "setting": "NCI-H1650; first compound 0.08 µM", "result": 0.791}, {"measurement": "relative viability", "setting": "NCI-H1650; first compound 0.8 µM", "result": 0.801}, {"measurement": "relative viability", "setting": "NCI-H1650; first compound 2.53 µM", "result": 0.653}, {"measurement": "relative viability", "setting": "NCI-H1650; first compound 8 µM", "result": 0.598}, {"measurement": "relative viability", "setting": "NCI-H1734; first compound 0.08 µM", "result": 0.648}, {"measurement": "relative viability", "setting": "NCI-H1734; first compound 0.8 µM", "result": 0.771}, {"measurement": "relative viability", "setting": "NCI-H1734; first compound 2.53 µM", "result": 0.618}, {"measurement": "relative viability", "setting": "NCI-H1734; first compound 8 µM", "result": 0.608}, {"measurement": "relative viability", "setting": "NCI-H1355; first compound 0.08 µM", "result": 0.445}, {"measurement": "relative viability", "setting": "NCI-H1355; first compound 0.8 µM", "result": 0.559}, {"measurement": "relative viability", "setting": "NCI-H1355; first compound 2.53 µM", "result": 0.422}, {"measurement": "relative viability", "setting": "NCI-H1355; first compound 8 µM", "result": 0.279}, {"measurement": "relative viability", "setting": "HCC-78; first compound 0.08 µM", "result": 0.371}, {"measurement": "relative viability", "setting": "HCC-78; first compound 0.8 µM", "result": 0.369}, {"measurement": "relative viability", "setting": "HCC-78; first compound 2.53 µM", "result": 0.343}, {"measurement": "relative viability", "setting": "HCC-78; first compound 8 µM", "result": 0.41}, {"measurement": "relative viability", "setting": "HCC-44; first compound 0.08 µM", "result": 0.481}, {"measurement": "relative viability", "setting": "HCC-44; first compound 0.8 µM", "result": 0.479}, {"measurement": "relative viability", "setting": "HCC-44; first compound 2.53 µM", "result": 0.344}, {"measurement": "relative viability", "setting": "HCC-44; first compound 8 µM", "result": 0.323}, {"measurement": "relative viability", "setting": "HCC-366; first compound 0.08 µM", "result": 0.926}, {"measurement": "relative viability", "setting": "HCC-366; first compound 0.8 µM", "result": 1.16}, {"measurement": "relative viability", "setting": "HCC-366; first compound 2.53 µM", "result": 1.03}, {"measurement": "relative viability", "setting": "HCC-366; first compound 8 µM", "result": 0.905}, {"measurement": "relative viability", "setting": "ABC-1; first compound 0.08 µM", "result": 0.58}, {"measurement": "relative viability", "setting": "ABC-1; first compound 0.8 µM", "result": 0.646}, {"measurement": "relative viability", "setting": "ABC-1; first compound 2.53 µM", "result": 0.472}, {"measurement": "relative viability", "setting": "ABC-1; first compound 8 µM", "result": 0.552}, {"measurement": "relative viability", "setting": "NCI-H838; first compound 0.08 µM", "result": 0.403}, {"measurement": "relative viability", "setting": "NCI-H838; first compound 0.8 µM", "result": 0.463}, {"measurement": "relative viability", "setting": "NCI-H838; first compound 2.53 µM", "result": 0.38}, {"measurement": "relative viability", "setting": "NCI-H838; first compound 8 µM", "result": 0.436}, {"measurement": "relative viability", "setting": "NCI-H1666; first compound 0.08 µM", "result": 0.798}, {"measurement": "relative viability", "setting": "NCI-H1666; first compound 0.8 µM", "result": 0.935}, {"measurement": "relative viability", "setting": "NCI-H1666; first compound 2.53 µM", "result": 0.871}, {"measurement": "relative viability", "setting": "NCI-H1666; first compound 8 µM", "result": 0.865}, {"measurement": "relative viability", "setting": "NCI-H358; first compound 0.08 µM", "result": 0.774}, {"measurement": "relative viability", "setting": "NCI-H358; first compound 0.8 µM", "result": 1.01}, {"measurement": "relative viability", "setting": "NCI-H358; first compound 2.53 µM", "result": 0.898}, {"measurement": "relative viability", "setting": "NCI-H358; first compound 8 µM", "result": 1.07}, {"measurement": "relative viability", "setting": "NCI-H2228; first compound 0.08 µM", "result": 0.697}, {"measurement": "relative viability", "setting": "NCI-H2228; first compound 0.8 µM", "result": 0.673}, {"measurement": "relative viability", "setting": "NCI-H2228; first compound 2.53 µM", "result": 0.726}, {"measurement": "relative viability", "setting": "NCI-H2228; first compound 8 µM", "result": 0.485}, {"measurement": "relative viability", "setting": "LK-2; first compound 0.08 µM", "result": 0.246}, {"measurement": "relative viability", "setting": "LK-2; first compound 0.8 µM", "result": 0.226}, {"measurement": "relative viability", "setting": "LK-2; first compound 2.53 µM", "result": 0.22}, {"measurement": "relative viability", "setting": "LK-2; first compound 8 µM", "result": 0.194}, {"measurement": "relative viability", "setting": "BEN; first compound 0.08 µM", "result": 0.287}, {"measurement": "relative viability", "setting": "BEN; first compound 0.8 µM", "result": 0.341}, {"measurement": "relative viability", "setting": "BEN; first compound 2.53 µM", "result": 0.338}, {"measurement": "relative viability", "setting": "BEN; first compound 8 µM", "result": 0.289}, {"measurement": "relative viability", "setting": "NCI-H2009; first compound 0.08 µM", "result": 0.728}, {"measurement": "relative viability", "setting": "NCI-H2009; first compound 0.8 µM", "result": 0.736}, {"measurement": "relative viability", "setting": "NCI-H2009; first compound 2.53 µM", "result": 0.492}, {"measurement": "relative viability", "setting": "NCI-H2009; first compound 8 µM", "result": 0.594}, {"measurement": "relative viability", "setting": "LOU-NH91; first compound 0.08 µM", "result": 0.691}, {"measurement": "relative viability", "setting": "LOU-NH91; first compound 0.8 µM", "result": 0.851}, {"measurement": "relative viability", "setting": "LOU-NH91; first compound 2.53 µM", "result": 0.743}, {"measurement": "relative viability", "setting": "LOU-NH91; first compound 8 µM", "result": 0.755}, {"measurement": "relative viability", "setting": "NCI-H2405; first compound 0.08 µM", "result": 0.64}, {"measurement": "relative viability", "setting": "NCI-H2405; first compound 0.8 µM", "result": 0.665}, {"measurement": "relative viability", "setting": "NCI-H2405; first compound 2.53 µM", "result": 0.659}, {"measurement": "relative viability", "setting": "NCI-H2405; first compound 8 µM", "result": 0.658}, {"measurement": "relative viability", "setting": "NCI-H520; first compound 0.08 µM", "result": 0.227}, {"measurement": "relative viability", "setting": "NCI-H520; first compound 0.8 µM", "result": 0.319}, {"measurement": "relative viability", "setting": "NCI-H520; first compound 2.53 µM", "result": 0.401}, {"measurement": "relative viability", "setting": "NCI-H520; first compound 8 µM", "result": 0.238}, {"measurement": "relative viability", "setting": "SW 1573; first compound 0.08 µM", "result": 0.6}, {"measurement": "relative viability", "setting": "SW 1573; first compound 0.8 µM", "result": 0.768}, {"measurement": "relative viability", "setting": "SW 1573; first compound 2.53 µM", "result": 0.896}, {"measurement": "relative viability", "setting": "SW 1573; first compound 8 µM", "result": 0.573}, {"measurement": "relative viability", "setting": "NCI-H1755; first compound 0.08 µM", "result": 0.829}, {"measurement": "relative viability", "setting": "NCI-H1755; first compound 0.8 µM", "result": 0.709}, {"measurement": "relative viability", "setting": "NCI-H1755; first compound 2.53 µM", "result": 0.634}, {"measurement": "relative viability", "setting": "NCI-H1755; first compound 8 µM", "result": 0.691}]}
